Data: patent US20030096433A1, “Homogeneous fluorescence assay” (Evotec Analytical Systems GmbH, priority 1999, published 2003)
“And” between values parts separate entries of the source, which are not always exact repeats. Equal entries are not always repeated. Where two headings read alike, the source gives them in different places.

Columns and labels:
p60src kinase = biological target: T1, p60src kinase (Homo sapiens, UniProt P12931); experiment: Protein tyrosine kinase pharmaceutical screening assay; type: biochemical
T1 construct: purchased Upstate Biotechnology
From the text: At first p60src (Upstate Biotechnology) phosphorylates the P2 substrate. The phos-phorylated and biotinylated P1 peptide is depicted as string of beads with attached “P” (phosphate) and triangle (biotin). The phosphorylated P2 competes with P1 for binding to the TRITC-labeled anti-phosphotyrosine antibody. In absence of enzyme activity all fluorescent antibodies are bound to carrier particles via P1 which means maximal binding to carrier particles and correspondingly minimum particle number. The phosphorylated P2 catches the fluorescent antibody preventing the formation of complexes. In that case no binding to carrier particles occurs and maximal particle number will be measured. Potential inhibitors are incubated with the enzyme before the enzyme reaction is started by adding a mixture of P2 and ATP.

anti-estradiol antibody = experiment: 17-β-Estradiol competitive carrier particle assay (FCS); type: binding; conditions: for IC50: competition with TAMRA-estradiol, carrier particles 160 nm, FCS
From the text: The anti-estradiol-antibody was kindly provided by Dr. Schumacher (Institute of Fertility Research, Hamburg). 17-β-estradiol was obtained from Sigma. The protein A coated carrier particles (Protein A Ferrofluid™) with a mean diameter of 160 nm were from Immunicon. The optical set-up was the same as described in Example 1. […] Data evaluation and fitting procedures were the same as described in Example 1. The concentration of the conjugate (TAMRA-estradiol), the corresponding antibody and the carrier particles were kept constant in a specific series of experiments. […] The competitive assays were carried out as follows: The TAMRA conjugate of estradiol was mixed with the corresponding unlabelled molecules. […] Some experiments with JA190-estradiol conjugates were carried out in E-NAP buffer (200 mM sodium acetate, 150 mM NaCl, 0.2% BSA, pH 4). […] All estradiol conjugates, except for the BODIPY™-derivative, bound to an anti-estradiol antibody with similar affinity. […] All other conjugate-antibody interactions remained strong. […] TAMRA-estradiol was used for further assay evaluation.

[1] = tested on: anti-estradiol antibodies; experiment: Estradiol competition assay (fluorescence intensity distribution analysis); type: binding, Rabbit; conditions: 5 nM estradiol-Tamra, 0.18 nM carrier particles, 10 x 2 s
[2] = biological target: anti-theophylline antibody; conditions: read-out: K2 (KD value for the competitor)

Compound `Nc1ncnc2c1ncn2[C@@H]1O[C@H](COP(=O)(O)OP(=O)(O)OP(=O)(O)O)[C@@H](O)[C@H]1O` [ATP] has a Km (p60src kinase; turn over velocity versus ATP concentration, FIG. 13, read-out: Michaelis constant KM) of 16.2 ± 4 µM.
`Cc1cc(O)c2c(c1)C(=O)c1cc(O)cc(O)c1C2=O` [Emodin] showed an IC50 (p60src kinase; dose-response curves, FIG. 12) of 50000 to 100000 nM.
For `O=CN/C=C/c1cc(O)ccc1O` [Erbstatin], the “Activity on p60src kinase (in words)” value (p60src kinase; dose-response curves, FIG. 12) was “inactive”.
Compound `CN(C)c1ccc2c(-c3ccc(C(=O)NCCOCCOCCNC(=O)CON=C4CC5C(CCC6(C)C(O)CCC56)c5ccc(O)cc54)cc3C(=O)[O-])c3ccc(N(C)C)cc3[o+]c2c1` (centres unmarked) [TAMRA-estradiol] has a Kd (anti-estradiol antibody; simultaneous fit of gB and binding degree to equations 1 and 8, read-out: K1 (KD value for the conjugate)) of 0.0014 nM.
For `C[C@]12CC[C@@H]3c4ccc(O)cc4CC[C@H]3[C@@H]1CC[C@@H]2O` [estradiol, 17-β-estradiol], the IC50 (anti-estradiol antibody; read-out: IC50 using the binding degree) was 20 nM, the IC50 (anti-estradiol antibody; read-out: IC50 using the correlation amplitude gB) was 3 nM and the IC50 ([1]; FIG. 8A, read-out: IC50 from I1 (intensity of free conjugate), hyperbolic fit) was 11.9 ± 2.4 nM. The IC50 ([1]; FIG. 8B, read-out: IC50 from I2 (intensity of carrier particles with bound conjugate), hyperbolic fit) was 13.3 nM and 13.2 nM and the IC50 ([1]; FIG. 8C, read-out: IC50 from I2/(I1+I2), hyperbolic fit) was 8.8 ± 1.1 nM.
`Cn1c(=O)c2[nH]cnc2n(C)c1=O` [theophylline, Theophylline] was tested, and the Kd ([2]; fit with K1 fixed at 10^−11 M) was 0.083 nM and the Kd ([2]; simultaneous fit of gB and binding degree to equations 1 and 8, K1 variable) was 0.0025 nM.
